Literature values, collected in patent publication US20160310552A1, “NORTHERN WHITE KIDNEY BEAN EXTRACT AND CERATONIA SILIQUA EXTRACT IN COMBINATION WITH GREEN TEA EXTRACT IN THE TREATMENT OF EXCESS WEIGHT AND OBESITY” (priority 2015, published 2016).

Experiments:
[1] = preliminary data; 10% with placebo
[2] = during a 12 month period

CC(C)CC(N(C)C)C1(c2ccc(Cl)cc2)CCC1 (centres unmarked) [sibutramine]
Subjects who died or had a heart attack, a stroke or cardiac arrest [1]: 11.4% | Weight loss [2]: 5-10%
